{"source": "patent US20260216238A1", "about": "“TETRATHIOMOLYBDIC ACID FOR USE IN TREATING COPPER METABOLISM-ASSOCIATED DISEASES OR DISORDERS (WILSON DISEASE)” (Alexion Pharmaceuticals, Inc., priority 2023, published 2026)", "tested_on": "patients with Wilson disease (WD)", "settings": "in vivo"}
{"substance": "bis-choline tetrathiomolybdate [TTM]", "values": [{"measurement": "AEs in SOC Investigations", "value": 29.5, "unit": "%"}, {"measurement": "AEs in SOC Metabolism and nutrition disorders", "value": 11.5, "unit": "%"}, {"measurement": "AEs in SOC Skin and subcutaneous tissue disorders", "value": 13.1, "unit": "%"}, {"measurement": "Affective disorder, E (events)", "value": 0}, {"measurement": "Affective disorder, participants with AE", "value": "0 N (%)"}, {"measurement": "Alanine aminotransferase increased AE, % participants", "value": 19.7, "unit": "%"}, {"measurement": "Alanine aminotransferase increased AE, E events", "value": 14}, {"measurement": "Alanine aminotransferase increased AE, N participants", "value": 12}, {"measurement": "Anxiety, E (events)", "value": 1}, {"measurement": "Anxiety, participants with AE", "value": "1 (1.6) N (%)"}, {"measurement": "Aspartate aminotransferase increased AE, % participants", "value": 6.6, "unit": "%"}, {"measurement": "Aspartate aminotransferase increased AE, E events", "value": 4}, {"measurement": "Aspartate aminotransferase increased AE, N participants", "value": 4}, {"measurement": "Attention deficit hyperactivity disorder, E (events)", "value": 0}, {"measurement": "Attention deficit hyperactivity disorder, participants with AE", "value": "0 N (%)"}, {"measurement": "Blood and lymphatic system disorders, E (events)", "value": 18}, {"measurement": "Blood and lymphatic system disorders, participants with AE", "value": "7 (11.5) N (%)"}, {"measurement": "Cardiac disorders, E (events)", "value": 5}, {"measurement": "Cardiac disorders, participants with AE", "value": "3 (4.9) N (%)"}, {"measurement": "Congenital, familial, and genetic disorders, E (events)", "value": 0}, {"measurement": "Congenital, familial, and genetic disorders, participants with AE", "value": "0 N (%)"}, {"measurement": "Dyslipidemia AE, % participants", "value": 1.6, "unit": "%"}, {"measurement": "Dyslipidemia AE, E events", "value": 1}, {"measurement": "Dyslipidemia AE, N participants", "value": 1}, {"measurement": "Ear and labyrinth disorders, E (events)", "value": 1}, {"measurement": "Ear and labyrinth disorders, participants with AE", "value": "1 (1.6) N (%)"}, {"measurement": "Eczema AE, % participants", "value": 1.6, "unit": "%"}, {"measurement": "Eczema AE, E events", "value": 1}, {"measurement": "Eczema AE, N participants", "value": 1}, {"measurement": "Eye disorders, E (events)", "value": 0}, {"measurement": "Eye disorders, participants with AE", "value": "0 N (%)"}, {"measurement": "Fatigue AE, % participants", "value": 8.2, "unit": "%"}, {"measurement": "Fatigue AE, E events", "value": 5}, {"measurement": "Fatigue AE, N participants", "value": 5}, {"measurement": "Gamma-glutamyltransferase increased AE, % participants", "value": 4.9, "unit": "%"}, {"measurement": "Gamma-glutamyltransferase increased AE, E events", "value": 3}, {"measurement": "Gamma-glutamyltransferase increased AE, N participants", "value": 3}, {"measurement": "Gastrointestinal disorders, E (events)", "value": 30}, {"measurement": "Gastrointestinal disorders, participants with AE", "value": "18 (29.5) N (%)"}, {"measurement": "Hand dermatitis AE, % participants", "value": 1.6, "unit": "%"}, {"measurement": "Hand dermatitis AE, E events", "value": 1}, {"measurement": "Hand dermatitis AE, N participants", "value": 1}, {"measurement": "Hepatic enzyme increased AE, N participants", "value": 3}, {"measurement": "Hepatobiliary disorders, E (events)", "value": 3}, {"measurement": "Hepatobiliary disorders, participants with AE", "value": "2 (3.3) N (%)"}, {"measurement": "Hyperlipidaemia AE, % participants", "value": 1.6, "unit": "%"}, {"measurement": "Hyperlipidaemia AE, E events", "value": 1}, {"measurement": "Hyperlipidaemia AE, N participants", "value": 1}, {"measurement": "Hypertriglyceridaemia AE, % participants", "value": 1.6, "unit": "%"}, {"measurement": "Hypertriglyceridaemia AE, E events", "value": 3}, {"measurement": "Hypertriglyceridaemia AE, N participants", "value": 1}, {"measurement": "Infections and infestations, E (events)", "value": 23}, {"measurement": "Infections and infestations, participants with AE", "value": "17 (27.9) N (%)"}, {"measurement": "Injury, poisoning and procedural complications, E (events)", "value": 13}, {"measurement": "Injury, poisoning and procedural complications, participants with AE", "value": "7 (11.5) N (%)"}, {"measurement": "Investigations (SOC) AE, % participants", "value": 29.5, "unit": "%"}, {"measurement": "Investigations (SOC) AE, E events", "value": 29}, {"measurement": "Investigations (SOC) AE, N participants", "value": 18}, {"measurement": "Metabolism and nutrition disorders (SOC) AE, % participants", "value": 11.5, "unit": "%"}, {"measurement": "Metabolism and nutrition disorders (SOC) AE, E events", "value": 10}, {"measurement": "Metabolism and nutrition disorders (SOC) AE, N participants", "value": 7}, {"measurement": "Neoplasms benign, malignant, and unspecified (incl cysts and polyps), E (events)", "value": 1}, {"measurement": "Neoplasms benign, malignant, and unspecified (incl cysts and polyps), participants with AE", "value": "1 (1.6) N (%)"}, {"measurement": "Nervous system disorders, E (events)", "value": 12}, {"measurement": "Nervous system disorders, participants with AE", "value": "11 (18.0) N (%)"}, {"measurement": "Neutrophil count decreased AE, % participants", "value": 1.6, "unit": "%"}, {"measurement": "Neutrophil count decreased AE, E events", "value": 1}, {"measurement": "Neutrophil count decreased AE, N participants", "value": 1}, {"measurement": "Post-traumatic stress disorder, E (events)", "value": 1}, {"measurement": "Post-traumatic stress disorder, participants with AE", "value": "1 (1.6) N (%)"}, {"measurement": "Product issues, E (events)", "value": 0}, {"measurement": "Product issues, participants with AE", "value": "0 N (%)"}, {"measurement": "Pruritus AE, % participants", "value": 3.3, "unit": "%"}, {"measurement": "Pruritus AE, E events", "value": 2}, {"measurement": "Pruritus AE, N participants", "value": 2}, {"measurement": "Psychiatric disorders, E (events)", "value": 3}, {"measurement": "Psychiatric disorders, participants with AE", "value": "3 (4.9) N (%)"}, {"measurement": "Pyrexia AE, % participants", "value": 1.6, "unit": "%"}, {"measurement": "Pyrexia AE, E events", "value": 1}, {"measurement": "Pyrexia AE, N participants", "value": 1}, {"measurement": "Rash AE, % participants", "value": 1.6, "unit": "%"}, {"measurement": "Rash AE, E events", "value": 5}, {"measurement": "Rash AE, N participants", "value": 1}, {"measurement": "Rash pruritic AE, % participants", "value": 1.6, "unit": "%"}, {"measurement": "Rash pruritic AE, E events", "value": 1}, {"measurement": "Rash pruritic AE, N participants", "value": 1}, {"measurement": "Renal and urinary disorders, E (events)", "value": 2}, {"measurement": "Renal and urinary disorders, participants with AE", "value": "1 (1.6) N (%)"}, {"measurement": "Reproductive system and breast disorders, E (events)", "value": 0}, {"measurement": "Reproductive system and breast disorders, participants with AE", "value": "0 N (%)"}, {"measurement": "Respiratory, thoracic, and mediastinal disorders, E (events)", "value": 4}, {"measurement": "Respiratory, thoracic, and mediastinal disorders, participants with AE", "value": "3 (4.9) N (%)"}, {"measurement": "Restlessness, E (events)", "value": 0}, {"measurement": "Restlessness, participants with AE", "value": "0 N (%)"}, {"measurement": "Skin and subcutaneous tissue disorders (SOC) AE, % participants", "value": 13.1, "unit": "%"}, {"measurement": "Skin and subcutaneous tissue disorders (SOC) AE, E events", "value": 15}, {"measurement": "Skin and subcutaneous tissue disorders (SOC) AE, N participants", "value": 8}, {"measurement": "Sleep disorder, E (events)", "value": 1}, {"measurement": "Sleep disorder, participants with AE", "value": "1 (1.6) N (%)"}, {"measurement": "Vascular disorders, E (events)", "value": 5}, {"measurement": "Vascular disorders, participants with AE", "value": "3 (4.9) N (%)"}]}
